Measurements taken from ChEMBL document CHEMBL3867468, “Discovery of 4-chloro-3-(5-(pyridin-3-yl)-1,2,4-oxadiazole-3-yl)benzamides as novel RET kinase inhibitors” (Bioorg Med Chem Lett, 2016).

Assays:
[1] = Inhibition of CCDC6/RET V804M mutant (unknown origin) expressed in mouse BaF3 cells assessed as reduction in cell proliferation after 72 hrs by MTT assay; assay type: cell-based; details: BaF3, 72 h
[2] = molecular target: Proto-oncogene tyrosine-protein kinase receptor Ret (Homo sapiens, UniProt P07949)
Sequence of Proto-oncogene tyrosine-protein kinase receptor Ret (P07949 whole entry): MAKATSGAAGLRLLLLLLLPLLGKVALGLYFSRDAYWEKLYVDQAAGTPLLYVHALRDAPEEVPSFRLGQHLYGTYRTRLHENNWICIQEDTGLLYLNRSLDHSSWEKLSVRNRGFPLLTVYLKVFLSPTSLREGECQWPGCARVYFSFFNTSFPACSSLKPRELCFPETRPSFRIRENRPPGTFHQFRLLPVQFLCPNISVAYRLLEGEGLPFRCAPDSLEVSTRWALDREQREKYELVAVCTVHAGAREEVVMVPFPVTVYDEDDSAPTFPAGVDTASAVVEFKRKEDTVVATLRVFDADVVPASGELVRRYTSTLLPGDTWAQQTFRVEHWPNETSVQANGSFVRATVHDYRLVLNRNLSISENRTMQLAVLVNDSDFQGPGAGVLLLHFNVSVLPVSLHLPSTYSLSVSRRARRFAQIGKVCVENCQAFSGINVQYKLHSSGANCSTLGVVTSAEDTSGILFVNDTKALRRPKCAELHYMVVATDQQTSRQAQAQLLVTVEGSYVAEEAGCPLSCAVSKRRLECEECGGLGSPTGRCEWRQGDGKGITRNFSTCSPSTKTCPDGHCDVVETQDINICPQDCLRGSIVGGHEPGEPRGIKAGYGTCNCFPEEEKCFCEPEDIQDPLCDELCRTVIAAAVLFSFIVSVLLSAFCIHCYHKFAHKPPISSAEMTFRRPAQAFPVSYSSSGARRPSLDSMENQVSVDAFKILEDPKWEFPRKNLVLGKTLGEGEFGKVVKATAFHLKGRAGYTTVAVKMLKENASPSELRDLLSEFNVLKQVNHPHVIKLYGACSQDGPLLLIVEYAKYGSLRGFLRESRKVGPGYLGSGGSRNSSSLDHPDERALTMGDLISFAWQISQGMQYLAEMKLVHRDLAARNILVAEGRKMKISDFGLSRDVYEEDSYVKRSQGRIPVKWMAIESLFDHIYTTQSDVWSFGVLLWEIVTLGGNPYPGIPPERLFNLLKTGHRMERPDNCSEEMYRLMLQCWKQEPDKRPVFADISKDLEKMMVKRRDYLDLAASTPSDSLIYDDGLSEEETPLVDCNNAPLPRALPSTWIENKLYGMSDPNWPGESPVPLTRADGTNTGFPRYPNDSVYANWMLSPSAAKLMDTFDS
Description: Inhibition of RET (unknown origin) using poly[Glu:Tyr] (4:1) as substrate after 60 mins by ELISA

| SMILES | IC50 [2] | IC50 [1] |
| --- | --- | --- |
| CN1CCN(Cc2ccc(NC(=O)c3ccc(Cl)c(-c4noc(-c5cncc(-c6cnn(C)c6)c5)n4)c3)cc2C(F)(F)F)CC1 | 0.0018 µM | 0.442 µM |
| CN1CCN(Cc2ccc(NC(=O)c3ccc(Cl)c(-c4noc(-c5cncc(N6CCOCC6)c5)n4)c3)cc2C(F)(F)F)CC1 | 0.0021 µM | – |
| COc1ccc(-c2nc(-c3cc(C(=O)Nc4ccc(CN5CCN(C)CC5)c(C(F)(F)F)c4)ccc3Cl)no2)cn1 | 0.342 µM | – |
| Cc1ccc(C(=O)Nc2ccc(CN3CCN(C)CC3)c(C(F)(F)F)c2)cc1C#Cc1cnc2cccnn12 [PONATINIB] | – | 0.136 µM |
| CN1CCN(Cc2ccc(NC(=O)c3ccc(Cl)c(C#Cc4cccnc4)c3)cc2C(F)(F)F)CC1 | 0.0025 µM | – |
| COCCOc1cncc(-c2nc(-c3cc(C(=O)Nc4ccc(CN5CCN(C)CC5)c(C(F)(F)F)c4)ccc3Cl)no2)c1 | 0.0114 µM | – |

Further lines, with some results ahead:

| IC50 [2] | SMILES | IC50 [1] |
| --- | --- | --- |
| 0.0073 µM | CN1CCN(Cc2ccc(NC(=O)c3ccc(Cl)c(-c4noc(-c5cccnc5)n4)c3)cc2C(F)(F)F)CC1 | – |
| 0.0214 µM | CN1CCN(Cc2ccc(NC(=O)c3ccc(Cl)c(-c4nc(-c5cccnc5)co4)c3)cc2C(F)(F)F)CC1 | – |
| 0.138 µM | CN1CCN(Cc2ccc(NC(=O)c3ccc(Cl)c(-c4nnc(-c5cccnc5)o4)c3)cc2C(F)(F)F)CC1 | – |
| 0.108 µM | Cc1ccc(C(=O)Nc2ccc(CN3CCN(C)CC3)c(C(F)(F)F)c2)cc1-c1noc(-c2cccnc2)n1 | – |
| 0.0124 µM | CN1CCN(Cc2ccc(NC(=O)c3ccc(Cl)c(-c4nc(-c5cccnc5)no4)c3)cc2C(F)(F)F)CC1 | – |
| 0.0179 µM | CN1CCN(Cc2ccc(NC(=O)c3cccc(-c4noc(-c5cccnc5)n4)c3)cc2C(F)(F)F)CC1 | – |
| 0.0194 µM | CN1CCN(Cc2ccc(NC(=O)c3ccc(Cl)c(-c4cnc(-c5cccnc5)o4)c3)cc2C(F)(F)F)CC1 | – |
| 0.0266 µM | CN1CCN(Cc2ccc(NC(=O)c3ccc(Cl)c(-c4noc(-c5ccncc5)n4)c3)cc2C(F)(F)F)CC1 | – |
